# Source: ChEMBL document CHEMBL1201862, “PubChem BioAssay data set” (2004)
# The source made the active and inactive calls.
# What was measured:
# [1] = viability loss in HeLa cells – cytotoxicity control for MgcRacGAP inhibitor project, dose response (AID 624300); type: functional
# [2] = biological target: T1, Rac GTPase-activating protein 1 (Homo sapiens, UniProt Q9H0H5); experiment: blockers of MgcRacGAP-driven Rac1 GTP hydrolysis – biochemical, ADP Hunter fluorescence, primary and confirmatory, confirmation (AID 624330); type: functional
# T1 sequence (Q9H0H5 whole entry): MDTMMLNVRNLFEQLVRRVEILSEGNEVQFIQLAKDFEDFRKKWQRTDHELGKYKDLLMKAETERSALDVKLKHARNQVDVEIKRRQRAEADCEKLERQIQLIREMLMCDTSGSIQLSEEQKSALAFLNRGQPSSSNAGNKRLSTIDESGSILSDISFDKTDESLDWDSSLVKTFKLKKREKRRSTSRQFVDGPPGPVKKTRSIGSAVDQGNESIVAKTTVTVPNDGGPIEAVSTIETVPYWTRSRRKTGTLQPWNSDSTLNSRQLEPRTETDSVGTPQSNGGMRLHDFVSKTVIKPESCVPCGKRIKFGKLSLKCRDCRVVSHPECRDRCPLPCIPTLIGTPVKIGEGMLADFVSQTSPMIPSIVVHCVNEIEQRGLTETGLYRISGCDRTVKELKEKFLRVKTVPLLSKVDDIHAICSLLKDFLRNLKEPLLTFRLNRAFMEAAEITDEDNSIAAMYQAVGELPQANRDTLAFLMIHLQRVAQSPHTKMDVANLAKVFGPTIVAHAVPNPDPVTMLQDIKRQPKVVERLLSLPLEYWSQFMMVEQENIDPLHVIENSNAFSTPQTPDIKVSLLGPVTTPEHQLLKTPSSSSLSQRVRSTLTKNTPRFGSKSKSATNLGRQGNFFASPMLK
# [3] = biological target: ADP-ribosylation factor GTPase-activating protein 1 (Rattus norvegicus, UniProt Q62848); experiment: Fluorescence polarization-based biochemical high throughput dose response screening assay to identify inhibitors of ADP-ribosylation factor GTPase activating protein 1 (ARFGAP1).; type: functional
# Sequence of ADP-ribosylation factor GTPase-activating protein 1 (Q62848 whole entry): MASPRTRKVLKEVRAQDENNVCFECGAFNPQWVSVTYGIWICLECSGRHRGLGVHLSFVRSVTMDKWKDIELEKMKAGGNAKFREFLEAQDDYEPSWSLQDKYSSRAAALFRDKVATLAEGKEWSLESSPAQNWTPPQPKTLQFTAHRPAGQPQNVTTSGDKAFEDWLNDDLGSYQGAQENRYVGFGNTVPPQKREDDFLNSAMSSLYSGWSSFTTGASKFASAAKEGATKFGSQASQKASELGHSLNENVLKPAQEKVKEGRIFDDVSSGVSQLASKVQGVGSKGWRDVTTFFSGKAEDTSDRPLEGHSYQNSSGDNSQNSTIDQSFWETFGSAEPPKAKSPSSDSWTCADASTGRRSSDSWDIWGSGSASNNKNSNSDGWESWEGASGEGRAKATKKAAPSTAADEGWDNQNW
# [4] = biological target: Broad substrate specificity ATP-binding cassette transporter ABCG2 (Homo sapiens, UniProt Q9UNQ0); experiment: blockers of JC-1 export by ABCG2 – Ig-MXP3 cells, flow cytometry, dose response (AID 1690); type: functional
# Sequence of Broad substrate specificity ATP-binding cassette transporter ABCG2 (Q9UNQ0 whole entry): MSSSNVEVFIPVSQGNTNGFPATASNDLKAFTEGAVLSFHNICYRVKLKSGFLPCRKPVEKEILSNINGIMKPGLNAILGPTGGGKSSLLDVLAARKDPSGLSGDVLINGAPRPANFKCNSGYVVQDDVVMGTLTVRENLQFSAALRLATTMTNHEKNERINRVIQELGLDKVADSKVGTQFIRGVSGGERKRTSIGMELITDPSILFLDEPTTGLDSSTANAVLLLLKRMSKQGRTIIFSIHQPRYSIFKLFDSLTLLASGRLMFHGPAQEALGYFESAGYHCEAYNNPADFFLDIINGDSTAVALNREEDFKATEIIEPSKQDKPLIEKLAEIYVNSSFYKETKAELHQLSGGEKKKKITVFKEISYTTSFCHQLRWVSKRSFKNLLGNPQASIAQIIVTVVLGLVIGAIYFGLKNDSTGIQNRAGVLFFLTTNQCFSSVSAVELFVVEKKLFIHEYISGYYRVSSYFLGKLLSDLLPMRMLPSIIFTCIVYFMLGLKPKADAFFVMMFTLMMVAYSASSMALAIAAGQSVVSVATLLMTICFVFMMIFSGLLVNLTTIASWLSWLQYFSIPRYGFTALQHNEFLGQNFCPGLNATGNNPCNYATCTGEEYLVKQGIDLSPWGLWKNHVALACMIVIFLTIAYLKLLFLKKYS
# [5] = NIH-3T3 fibroblast cytotoxicity, dose response, cytotoxicity control, cell-based, fluorescence, Alamar Blue, secondary assay (AID 2327); type: functional;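 further: NIH-3T3 mouse fibroblasts cultured with fluconazole at 8 µg/mL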
# [6] = fluconazole-exposed Candida albicans growth modulators – fluorescence, retest, confirmation (AID 2467); type: functional, cell-based
# [7] = Trypanosoma cruzi growth suppression in host cells – NIH3T3 host cells, beta-gal luminescence, confirmation (AID 2044); type: functional, cell-based;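 further: intracellular parasites grown in NIH/3T3 mouse fibroblasts as host cells; luminescent beta-galactosidase reporter signal from transgenic T. cruzi replicating inside host cells; inhibitors lower the luminescence signal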
# [8] = viability of PTEN-deleted HCT116 cells – cell-based, HCT116 PTEN knockout, dose response (AID 1047); type: functional;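 further: HCT116 colon tumor cells with PTEN knocked out; cells exposed to compound for 60 hours before readout; potency for loss of cell viability measured by luminescence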
# [9] = NIH3T3 cell viability loss – ATP luminescence, mouse fibroblasts, counter-screen, dose response (AID 2010); type: functional, cell-based;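 further: cells exposed to compound for about 90 hours before reading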
# [10] = viability of HCT116 lacking mutant beta-catenin – cell-based, human colon tumor, dose response (AID 1045); type: functional;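 further: HCT116 colon tumor cells with beta catenin knocked out; cells exposed to compound for 60 hours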
# [11] = activation of miR-122 Renilla sensor silencing – cell-based, Huh7 psiCHECK-miR122, Renilla luciferase, cherry-picked, dose response (AID 651956); type: functional;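 further: huh7 hepatoma cells stably carrying a psiCHECK-2 miR-122 sensor plasmid; renilla luciferase signal reporting endogenous miR-122 activity after 48 h compound exposure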
# [12] = general mammalian cell viability loss – activator set, cherry-pick, cytotoxicity control for miR-122 modulator project, dose response (AID 720690); type: functional, cell-based;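 further: HEK293T human cells scored for general mammalian cytotoxicity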
# [13] = microbe, parasite or virus in culture; type: functional; conditions: Mycobacterium tuberculosis
# [14] = tested on: Saccharomyces cerevisiae; experiment: S. cerevisiae Caspase-1/ASC signal blockers IC50, NALP1 inhibitor project selectivity test (AID 488863); type: functional, organism-based
# [15] = Luminescence Cell-Based Dose Retest to Confirm Inhibitors of Cancer Stem Cells. [Related pubchem assays (depositor defined):AID2717, AID2721]; type: functional; conditions: Homo sapiens
# [16] = biological target: T2, NACHT, LRR and PYD domains-containing protein 1 (Homo sapiens, UniProt Q9C000); experiment: NALP1 inhibitors in yeast, dose response, luminescent (AID 488860); type: functional
# T2 sequence (Q9C000 whole entry): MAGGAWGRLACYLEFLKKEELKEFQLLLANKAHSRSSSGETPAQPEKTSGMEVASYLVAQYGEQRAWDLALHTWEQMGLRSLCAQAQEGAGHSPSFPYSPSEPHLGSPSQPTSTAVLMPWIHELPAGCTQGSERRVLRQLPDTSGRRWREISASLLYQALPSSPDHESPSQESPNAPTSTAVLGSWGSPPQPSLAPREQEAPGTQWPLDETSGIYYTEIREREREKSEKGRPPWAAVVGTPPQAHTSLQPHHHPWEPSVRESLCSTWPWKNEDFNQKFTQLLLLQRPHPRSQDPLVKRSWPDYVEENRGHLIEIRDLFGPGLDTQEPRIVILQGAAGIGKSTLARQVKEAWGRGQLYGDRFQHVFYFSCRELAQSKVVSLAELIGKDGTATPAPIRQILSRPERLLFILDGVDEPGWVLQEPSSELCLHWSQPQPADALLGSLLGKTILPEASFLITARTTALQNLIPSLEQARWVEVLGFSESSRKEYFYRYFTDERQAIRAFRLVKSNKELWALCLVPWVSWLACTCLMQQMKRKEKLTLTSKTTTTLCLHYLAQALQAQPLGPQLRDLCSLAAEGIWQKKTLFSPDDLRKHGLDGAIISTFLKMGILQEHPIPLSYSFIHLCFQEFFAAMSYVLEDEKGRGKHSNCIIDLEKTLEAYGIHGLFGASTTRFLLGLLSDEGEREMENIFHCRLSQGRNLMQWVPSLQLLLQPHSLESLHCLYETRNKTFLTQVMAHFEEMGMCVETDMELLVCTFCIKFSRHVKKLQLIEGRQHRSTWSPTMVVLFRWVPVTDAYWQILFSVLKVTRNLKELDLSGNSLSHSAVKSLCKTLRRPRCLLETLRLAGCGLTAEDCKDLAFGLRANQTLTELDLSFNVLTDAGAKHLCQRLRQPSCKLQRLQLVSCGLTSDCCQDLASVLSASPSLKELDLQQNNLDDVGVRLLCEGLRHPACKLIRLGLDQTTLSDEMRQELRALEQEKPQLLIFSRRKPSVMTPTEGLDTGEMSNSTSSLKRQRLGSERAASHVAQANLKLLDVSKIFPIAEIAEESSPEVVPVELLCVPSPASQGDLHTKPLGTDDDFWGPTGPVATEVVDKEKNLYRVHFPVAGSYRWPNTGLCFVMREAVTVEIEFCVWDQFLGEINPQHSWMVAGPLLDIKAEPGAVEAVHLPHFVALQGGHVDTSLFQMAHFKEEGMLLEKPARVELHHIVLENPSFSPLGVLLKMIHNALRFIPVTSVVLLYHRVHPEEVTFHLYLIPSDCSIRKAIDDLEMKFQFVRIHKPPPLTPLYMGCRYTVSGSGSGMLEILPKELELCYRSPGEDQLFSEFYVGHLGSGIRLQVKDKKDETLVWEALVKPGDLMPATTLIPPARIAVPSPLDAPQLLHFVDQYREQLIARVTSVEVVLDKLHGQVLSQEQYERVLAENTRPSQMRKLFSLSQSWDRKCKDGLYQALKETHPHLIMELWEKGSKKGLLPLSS
# [17] = cytotoxicity toward MDA-MB-231 breast cancer cells – cell-based, CellTiter-Glo luminescence, cherry-pick, cytotoxicity control for RAD54 inhibitor project, dose response (AID 651692); type: functional
# [18] = biological target: T3, DNA repair and recombination protein RAD54-like (Homo sapiens, UniProt Q92698); experiment: RAD54 Holliday junction migration blockers – biochemical, fluorescence, cherry-picked samples, dose series, confirmation (AID 651657); type: functional
# T3 sequence (Q92698 whole entry): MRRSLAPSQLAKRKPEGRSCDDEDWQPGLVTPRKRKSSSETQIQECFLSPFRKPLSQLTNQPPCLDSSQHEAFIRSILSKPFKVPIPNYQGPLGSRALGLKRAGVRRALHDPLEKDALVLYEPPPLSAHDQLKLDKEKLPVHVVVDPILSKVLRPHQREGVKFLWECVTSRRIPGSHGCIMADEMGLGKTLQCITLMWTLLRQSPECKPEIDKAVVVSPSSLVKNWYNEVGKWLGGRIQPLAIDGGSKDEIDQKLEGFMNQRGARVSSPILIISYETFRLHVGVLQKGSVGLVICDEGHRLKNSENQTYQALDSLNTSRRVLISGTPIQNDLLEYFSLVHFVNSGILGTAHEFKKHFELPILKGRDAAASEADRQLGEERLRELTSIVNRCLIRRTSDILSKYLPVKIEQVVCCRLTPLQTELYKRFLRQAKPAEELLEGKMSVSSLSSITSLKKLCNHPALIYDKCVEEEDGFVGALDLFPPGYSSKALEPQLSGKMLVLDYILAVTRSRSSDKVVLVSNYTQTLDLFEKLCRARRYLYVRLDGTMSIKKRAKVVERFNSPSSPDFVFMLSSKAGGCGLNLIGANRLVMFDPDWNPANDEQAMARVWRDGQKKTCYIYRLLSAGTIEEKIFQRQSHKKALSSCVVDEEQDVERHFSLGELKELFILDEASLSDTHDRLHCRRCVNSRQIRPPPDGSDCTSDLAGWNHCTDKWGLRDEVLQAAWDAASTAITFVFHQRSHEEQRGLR
# [19] = biological target: T4, DNA repair protein RAD52 homolog (Homo sapiens, UniProt P43351); type: functional, biochemical
# T4 sequence (P43351 whole entry): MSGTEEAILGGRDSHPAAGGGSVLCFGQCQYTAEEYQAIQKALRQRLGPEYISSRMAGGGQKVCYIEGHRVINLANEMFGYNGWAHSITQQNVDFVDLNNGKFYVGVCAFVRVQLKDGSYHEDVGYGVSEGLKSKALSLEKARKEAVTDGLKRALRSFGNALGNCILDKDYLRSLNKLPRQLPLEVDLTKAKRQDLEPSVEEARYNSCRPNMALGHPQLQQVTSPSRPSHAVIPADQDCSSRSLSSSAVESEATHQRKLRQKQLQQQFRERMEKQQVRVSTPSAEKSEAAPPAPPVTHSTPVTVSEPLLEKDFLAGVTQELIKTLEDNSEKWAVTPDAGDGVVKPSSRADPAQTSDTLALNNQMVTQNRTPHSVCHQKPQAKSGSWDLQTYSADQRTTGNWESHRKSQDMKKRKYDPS
# [20] = biological target: T5, Corticotropin-releasing factor receptor 2/Corticotropin-releasing factor-binding protein (Homo sapiens, UniProt P24387+Q13324); experiment: Dose Response confirmation of uHTS hits for small molecule antagonists of the CRF-binding protein and CRF-R2 receptor complex.; type: functional; conditions: read-out: IC50_Mean
# T5 sequence (Q13324 whole entry): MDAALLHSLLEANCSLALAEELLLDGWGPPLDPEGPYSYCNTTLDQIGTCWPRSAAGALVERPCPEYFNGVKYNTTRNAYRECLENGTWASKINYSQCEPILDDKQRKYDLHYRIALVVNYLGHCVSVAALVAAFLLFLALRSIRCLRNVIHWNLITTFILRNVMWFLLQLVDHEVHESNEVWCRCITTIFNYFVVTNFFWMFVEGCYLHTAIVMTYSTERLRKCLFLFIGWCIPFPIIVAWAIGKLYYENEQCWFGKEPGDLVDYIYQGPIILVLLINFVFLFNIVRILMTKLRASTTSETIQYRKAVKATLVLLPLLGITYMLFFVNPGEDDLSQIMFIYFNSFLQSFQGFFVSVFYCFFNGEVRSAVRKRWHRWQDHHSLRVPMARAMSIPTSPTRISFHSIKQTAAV
# T5 sequence (P24387 whole entry): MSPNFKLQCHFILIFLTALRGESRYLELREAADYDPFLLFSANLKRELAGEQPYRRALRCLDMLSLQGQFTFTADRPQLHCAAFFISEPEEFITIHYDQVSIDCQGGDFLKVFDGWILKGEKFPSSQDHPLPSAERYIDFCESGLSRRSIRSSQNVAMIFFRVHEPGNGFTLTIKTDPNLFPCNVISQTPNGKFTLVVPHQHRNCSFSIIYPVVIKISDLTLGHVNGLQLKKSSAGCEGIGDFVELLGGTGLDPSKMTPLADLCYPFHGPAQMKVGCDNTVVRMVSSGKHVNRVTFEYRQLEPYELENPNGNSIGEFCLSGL
# [21] = biological target: T5, Corticotropin-releasing factor receptor 2/Corticotropin-releasing factor-binding protein; experiment: activators of CRF receptor 2 with binding protein – uHTS hits, confirmation (AID 602473); type: functional; conditions: read-out: EC50_Mean
# [22] = blockers of CRF-binding protein–CRF-R2 complex – cell-based, uHTS hits, 384-well, dose response (AID 651639); type: functional, Homo sapiens; conditions: read-out: IC50_Mean
# [23] = biological target: T6, Sentrin-specific protease 1 (Homo sapiens, UniProt Q9P0U3); experiment: SENP1 catalytic domain blockers, concentration series – biochemical, kinetic FRET, dose response (AID 651697); type: functional; conditions: read-out: IC50_Mean
# T6 sequence (Q9P0U3 whole entry, the tested form may be a part): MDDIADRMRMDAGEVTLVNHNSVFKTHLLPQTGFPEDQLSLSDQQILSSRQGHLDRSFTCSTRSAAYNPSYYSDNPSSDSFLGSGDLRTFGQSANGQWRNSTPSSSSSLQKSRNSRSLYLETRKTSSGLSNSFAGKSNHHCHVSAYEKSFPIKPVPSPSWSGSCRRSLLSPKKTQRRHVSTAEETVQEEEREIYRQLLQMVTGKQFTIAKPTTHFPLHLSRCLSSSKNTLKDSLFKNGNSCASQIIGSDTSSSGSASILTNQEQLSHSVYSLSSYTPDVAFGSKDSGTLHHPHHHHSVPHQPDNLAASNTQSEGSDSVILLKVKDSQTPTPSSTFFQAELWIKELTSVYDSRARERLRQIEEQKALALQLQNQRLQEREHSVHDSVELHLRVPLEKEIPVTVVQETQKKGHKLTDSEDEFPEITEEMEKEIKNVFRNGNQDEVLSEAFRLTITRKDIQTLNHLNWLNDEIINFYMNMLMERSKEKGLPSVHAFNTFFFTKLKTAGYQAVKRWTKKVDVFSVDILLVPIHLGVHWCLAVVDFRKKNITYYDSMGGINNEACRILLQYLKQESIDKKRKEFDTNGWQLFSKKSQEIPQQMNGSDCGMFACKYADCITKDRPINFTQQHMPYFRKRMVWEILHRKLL
# [24] = biological target: T6, Sentrin-specific protease 1; experiment: Dose response confirmation of small molecule inhibitors of the catalytic domain of the SUMO protease, SENP1 in a FRET assay.; type: functional; conditions: read-out: IC50_Mean
structure (smiles),measurement,setting,value
COc1cc(/C=N/NC(=O)CCn2c3ccccc3c3ccccc32)ccc1O,CC50,[1],100 µM (active)
same,IC50,[2],85.8 µM (active)
O=C(Nc1ccc(-c2nc3ccccc3[nH]2)cc1)c1ccc2c(c1)OCO2,IC50,[3],42 µM (inactive)
CC1=NN(c2ccc([N+](=O)[O-])cc2)C(=O)/C1=C/N(C)C,EC50,[4],4 µM (active)
N=c1c2c(-c3ccccc3)c(-c3ccccc3)n(Cc3ccccc3)c2ncn1CCO,EC50,[5],> 150 µM (inactive)
same,EC50,[6],> 38 µM (not active)
same,EC50,[7],2.42 µM (active)
same,EC50,[8],555 nM (active)
same,EC50,[9],> 30 µM (not active)
same,EC50,[10],637 nM (active)
same,AC50,[11],30.5 µM (active)
same,AC50,[12],23.4 µM (active)
OC(CN1CCCCC1)Cn1c2ccc(Cl)cc2c2cc(Cl)ccc21 (stereo unspecified),EC50,[7],2.43 µM (active)
same,CC50,[13],14.5 µM (active)
same,EC50,[9],10.8 µM (active)
same,IC50,[14],7.1 µM (active)
same,AC50,[15],5.53 µM (active)
same,IC50,[16],10.2 µM (active)
same,AC50,[17],32.1 µM (active)
same,AC50,[18],27.2 µM (active)
same,AC50,[19],12.1 µM (active)
CCN(Cc1ccccc1)C(c1cccc(C#N)c1)c1nnnn1C(C)(C)C (stereo unspecified),IC50,[20],1 µM (active)
same,EC50,[21],> 53 µM (inactive)
same,IC50,[22],7.23 µM (active)
CCOC(=O)/C=C/c1cc(F)ccc1O,IC50,[23],13.8 µM (active)
same,IC50,[24],11.2 µM (active)
